EP4660182A1, “NAV1.7- AND/OR NAV1.8-INHIBITING ARYL PYRIDINE COMPOUNDS, PROCESSES FOR THE PREPARATION THEREOF, COMPOSITIONS, USES, METHODS FOR TREATMENT USING SAME, AND KITS” (Eurofarma Laboratórios S.A., priority 2023, dated 2024)

Experiments:
[1] = target: T1, human sodium channels Nav 1.8 (Homo sapiens, UniProt Q9Y5Y9); test: Automated whole-cell voltage-clamp (ScreenPatch 384P) sodium current block, Nav 1.8; assay type: cell-based; settings: CHO cells stably expressing human Nav 1.8; inactivation step -40 mV 8 s, test step 10 mV (TP1A); eight concentrations; exposure at least five minutes; room temperature; read-out: Nav1.8 IC50
T1 construct: expressed in transfected cells
T1 sequence (Q9Y5Y9 whole entry): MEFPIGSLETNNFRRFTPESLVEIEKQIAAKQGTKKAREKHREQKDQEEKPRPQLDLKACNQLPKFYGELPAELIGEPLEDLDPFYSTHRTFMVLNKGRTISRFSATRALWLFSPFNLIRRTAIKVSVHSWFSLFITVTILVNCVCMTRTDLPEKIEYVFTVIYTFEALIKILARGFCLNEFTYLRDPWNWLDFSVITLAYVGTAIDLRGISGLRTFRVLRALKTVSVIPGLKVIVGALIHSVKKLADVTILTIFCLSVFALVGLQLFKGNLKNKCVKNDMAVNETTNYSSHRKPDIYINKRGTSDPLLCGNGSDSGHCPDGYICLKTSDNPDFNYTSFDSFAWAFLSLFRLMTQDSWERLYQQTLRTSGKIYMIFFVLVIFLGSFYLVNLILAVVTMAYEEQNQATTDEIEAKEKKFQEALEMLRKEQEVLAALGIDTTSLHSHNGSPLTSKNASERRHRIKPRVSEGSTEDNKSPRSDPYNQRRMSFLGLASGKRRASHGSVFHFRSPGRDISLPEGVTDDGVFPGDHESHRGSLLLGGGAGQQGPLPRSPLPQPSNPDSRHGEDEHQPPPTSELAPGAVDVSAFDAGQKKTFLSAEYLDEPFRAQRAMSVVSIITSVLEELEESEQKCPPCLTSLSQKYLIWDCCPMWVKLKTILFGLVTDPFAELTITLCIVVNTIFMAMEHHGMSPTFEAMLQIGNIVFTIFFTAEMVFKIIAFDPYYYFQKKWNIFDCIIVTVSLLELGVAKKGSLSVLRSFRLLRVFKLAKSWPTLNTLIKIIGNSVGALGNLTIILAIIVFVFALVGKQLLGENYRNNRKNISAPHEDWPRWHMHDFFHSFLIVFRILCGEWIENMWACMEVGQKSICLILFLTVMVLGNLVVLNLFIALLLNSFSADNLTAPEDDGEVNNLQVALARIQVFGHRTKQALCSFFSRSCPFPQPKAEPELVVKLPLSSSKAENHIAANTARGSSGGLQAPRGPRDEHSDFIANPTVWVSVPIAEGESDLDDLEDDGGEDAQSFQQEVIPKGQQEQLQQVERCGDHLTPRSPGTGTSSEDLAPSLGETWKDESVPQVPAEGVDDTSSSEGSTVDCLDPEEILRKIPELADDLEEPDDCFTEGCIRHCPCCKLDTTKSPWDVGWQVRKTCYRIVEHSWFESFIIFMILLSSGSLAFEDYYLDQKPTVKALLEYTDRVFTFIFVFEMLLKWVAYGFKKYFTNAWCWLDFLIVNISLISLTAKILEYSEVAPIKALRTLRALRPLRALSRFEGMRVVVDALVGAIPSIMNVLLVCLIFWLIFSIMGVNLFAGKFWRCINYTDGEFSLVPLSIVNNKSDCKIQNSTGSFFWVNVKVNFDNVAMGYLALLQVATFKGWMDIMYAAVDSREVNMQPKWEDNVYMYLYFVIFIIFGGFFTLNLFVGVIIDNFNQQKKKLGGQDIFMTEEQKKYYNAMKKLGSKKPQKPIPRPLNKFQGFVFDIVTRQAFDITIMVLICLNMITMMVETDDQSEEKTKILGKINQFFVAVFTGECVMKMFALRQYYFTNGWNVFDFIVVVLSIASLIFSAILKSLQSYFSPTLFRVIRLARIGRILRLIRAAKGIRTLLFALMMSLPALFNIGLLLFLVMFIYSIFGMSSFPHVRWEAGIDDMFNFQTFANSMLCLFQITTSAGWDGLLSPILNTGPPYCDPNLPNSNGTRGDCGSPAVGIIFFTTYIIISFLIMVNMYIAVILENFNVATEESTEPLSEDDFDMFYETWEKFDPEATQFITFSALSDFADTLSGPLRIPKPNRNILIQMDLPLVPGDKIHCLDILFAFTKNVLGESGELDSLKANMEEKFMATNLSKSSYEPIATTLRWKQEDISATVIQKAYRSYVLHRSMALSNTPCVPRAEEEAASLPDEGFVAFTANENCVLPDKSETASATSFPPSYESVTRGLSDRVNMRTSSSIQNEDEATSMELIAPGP
Experimental: (§1) Biological assays were performed on Chinese hamster ovary (CHO) cells that express human sodium channels Nav 1.8 or Nav 1.7 in a stable manner.
(§2) The experimental protocol voltage-clamp using the whole cell configuration was established on the automated ScreenPatch® 384P platform (SP384PE, Nanion Technologies, Livingston, NJ) and the results were recorded with a Nanion 384-well Patch Clamp chip (NPC) (Nanion Technologies, Livingston, NJ).
(§3) Formula I compounds were diluted in eight concentrations in the extracellular solution composed of saline solution, buffered with HEPES (mM): NaCl, 137; KCl, 4; CaCl2, 3,8; MgCl2, 1; HEPES, 10; Glucose, 10; pH 7.4. The […], 50; CsF, 90; MgCl2, 5; EGTA, 5; HEPES, 10; pH 7.2. The duration of exposure of each compound with cells expressing Nav 1.7 or Nav 1.8 was at least five minutes and the assays were performed at room temperature.
(§4) The measurements of the sodium currents of Nav 1.8 and Nav 1.7 were obtained using the voltage protocol described below.
(§5) A holding voltage of -100 mV was established followed by an inactivation voltage step at -40 mV for 8 seconds, followed by a step of -100 mV for 20 ms, followed by a 20 ms step for 10 mV for Nav 1.8 or 0 mV for Nav 1.7 (TP1A) before returning to the holding voltage of -100 mV.
(§6) The protocol was repeated at a frequency of 0.05 Hz and the amplitude of the current was quantified throughout the recording of the TP1A phase. The variation in the amplitude of the peak current was evaluated according to the formula described below, after exposing the cells expressing the channels to each concentration of the different compounds: % Block = (1−(ITP1A,molecule/ITP1A,basal)×100%, [formula] wherein ITP1A,basal and ITP1A,molecule represent the peaks of sodium current input into TP1A before exposure to the compound and in the presence of the compound, respectively.
(§7) Data were obtained by nonlinear regression (nonlinear least squares) with XLfit for Excel (Microsoft, Redmond, WA).
(§8) The compounds were tested in at least one assay to obtain the value of CI50. For compounds that were tested in two or more assays, the results are described as the means of the CI50 values.

[2] = target: T2, human sodium channels Nav 1.7 (Homo sapiens, UniProt Q15858); test: Automated whole-cell voltage-clamp (ScreenPatch 384P) sodium current block, Nav 1.7; assay type: cell-based; settings: CHO cells stably expressing human Nav 1.7; inactivation step -40 mV 8 s, test step 0 mV (TP1A); eight concentrations; exposure at least five minutes; room temperature; read-out: Nav1.7 IC50
T2 construct: expressed in transfected cells
T2 sequence (Q15858 whole entry): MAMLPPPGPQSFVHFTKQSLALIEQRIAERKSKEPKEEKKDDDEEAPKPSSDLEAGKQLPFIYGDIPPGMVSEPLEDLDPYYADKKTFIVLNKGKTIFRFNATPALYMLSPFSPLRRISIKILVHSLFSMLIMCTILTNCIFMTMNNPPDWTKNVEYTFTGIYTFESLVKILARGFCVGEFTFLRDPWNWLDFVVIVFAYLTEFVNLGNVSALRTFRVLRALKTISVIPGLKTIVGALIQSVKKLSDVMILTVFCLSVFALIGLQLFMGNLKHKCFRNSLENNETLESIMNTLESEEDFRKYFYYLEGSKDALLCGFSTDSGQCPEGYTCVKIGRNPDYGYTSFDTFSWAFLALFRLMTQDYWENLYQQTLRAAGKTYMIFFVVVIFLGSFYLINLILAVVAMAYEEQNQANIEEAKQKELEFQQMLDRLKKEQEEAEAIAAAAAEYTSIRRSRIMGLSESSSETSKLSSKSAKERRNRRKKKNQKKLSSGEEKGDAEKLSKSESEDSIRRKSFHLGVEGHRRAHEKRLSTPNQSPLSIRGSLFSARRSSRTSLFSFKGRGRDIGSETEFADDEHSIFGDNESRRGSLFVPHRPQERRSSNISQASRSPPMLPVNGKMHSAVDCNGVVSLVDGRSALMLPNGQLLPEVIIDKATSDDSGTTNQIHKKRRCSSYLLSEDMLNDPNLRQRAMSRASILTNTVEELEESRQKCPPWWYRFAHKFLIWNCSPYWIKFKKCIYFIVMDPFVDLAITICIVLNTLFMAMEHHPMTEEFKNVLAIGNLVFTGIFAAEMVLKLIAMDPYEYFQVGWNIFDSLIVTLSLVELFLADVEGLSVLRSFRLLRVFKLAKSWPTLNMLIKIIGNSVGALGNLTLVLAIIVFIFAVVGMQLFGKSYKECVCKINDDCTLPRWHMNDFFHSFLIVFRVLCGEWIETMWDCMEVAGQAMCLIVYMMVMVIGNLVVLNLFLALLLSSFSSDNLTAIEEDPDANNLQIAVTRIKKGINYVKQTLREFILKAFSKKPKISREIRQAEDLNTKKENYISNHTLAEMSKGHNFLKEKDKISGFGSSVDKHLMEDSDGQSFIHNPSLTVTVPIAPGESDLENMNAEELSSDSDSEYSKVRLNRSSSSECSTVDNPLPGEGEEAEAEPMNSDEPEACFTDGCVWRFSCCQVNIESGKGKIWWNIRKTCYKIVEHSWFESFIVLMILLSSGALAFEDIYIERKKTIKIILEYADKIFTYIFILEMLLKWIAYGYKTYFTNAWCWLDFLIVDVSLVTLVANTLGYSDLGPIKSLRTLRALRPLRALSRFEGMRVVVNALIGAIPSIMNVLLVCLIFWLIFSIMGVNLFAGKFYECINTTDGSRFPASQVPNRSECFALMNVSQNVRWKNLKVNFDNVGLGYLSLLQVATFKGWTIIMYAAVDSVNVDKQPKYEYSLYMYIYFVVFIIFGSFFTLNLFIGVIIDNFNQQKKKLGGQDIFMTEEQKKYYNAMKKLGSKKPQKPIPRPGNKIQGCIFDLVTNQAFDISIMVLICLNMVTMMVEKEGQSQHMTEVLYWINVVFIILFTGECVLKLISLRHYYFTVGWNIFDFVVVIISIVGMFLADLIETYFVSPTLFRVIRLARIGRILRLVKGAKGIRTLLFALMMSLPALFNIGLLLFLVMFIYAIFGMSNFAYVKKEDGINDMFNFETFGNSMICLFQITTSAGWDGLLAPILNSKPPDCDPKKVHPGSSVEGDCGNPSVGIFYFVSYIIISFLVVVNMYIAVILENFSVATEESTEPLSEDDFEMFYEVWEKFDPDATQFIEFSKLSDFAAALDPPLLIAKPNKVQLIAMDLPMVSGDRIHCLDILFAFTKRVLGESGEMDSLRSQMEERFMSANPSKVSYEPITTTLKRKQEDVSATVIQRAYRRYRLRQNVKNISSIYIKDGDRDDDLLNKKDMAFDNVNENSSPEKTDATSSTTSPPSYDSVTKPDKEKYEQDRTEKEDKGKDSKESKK
Experimental: as §1, §2, §3, §4, §5, §6, §7, §8

For `O=C(N/N=C/c1cccc(O)n1)c1cncc(-c2ccc(OC(F)F)nc2)n1` [Compound 115, (E)-6-(6-(difluoromethoxy)pyridine-3-yl)-N'-((6-hydroxypyridine-2-yl)methylene) pyrazine-2-carbohydrazide], the IC50 [1] was greater than 1 µM and the IC50 [2] was greater than 1 µM.
With `COc1cc(/C=N/NC(=O)c2cncc(-c3ccc(OC(F)F)nc3)n2)cc(O)n1` [Compound 118, (E)-6-(6-(difluoromethoxy)pyridine-3-yl)-N'-((2-hydroxy-6-methoxypyridine-4-yl)methylene)pyrazine-2-carbohydrazide] the IC50 [1] was greater than 1 µM and the IC50 [2] was greater than 1 µM.
Work on `CCOc1ccc(-c2cncc(C(=O)N/N=C/c3cc(N4CC(O)C4)ccc3F)n2)cn1` [Compound 37, (E)-6-(6-ethoxypyridine-3-yl)-N'-(2-fluoro-5-(3-hydroxyazetidine-1-yl)benzylidene) pyrazine-2-carbohydrazide] yielded an IC50 [1] greater than 1 µM and an IC50 [2] greater than 1 µM.
In the case of `CCOc1ccc(-c2cncc(C(=O)N/N=C/c3cc(OC)ncc3F)n2)cn1` [Compound 8, (E)-6-(6-ethoxypyridine-3-yl)-N'-((5-fluoro-2-methoxypyridine-4-yl)methylene)pyrazine-2-carbohydrazide], the IC50 [1] is reported as 0.5 to 1 µM and the IC50 [2] is reported as greater than 1 µM.
Compound `CCOc1ccc(-c2cncc(C(=O)N/N=C/c3c[nH]nc3C)n2)cn1` [Compound 57, (E)-6-(6-ethoxypyridine-3-yl)-N'-((3-methyl-1H-pyrazole-4-yl)methylene)pyrazine-2-carbohydrazide] has an IC50 [1] greater than 1 µM and an IC50 [2] greater than 1 µM.
In the case of `COc1ccc(F)c(/C=N/NC(=O)c2cncc(-c3ccc(OC4CNC4)nc3)n2)c1` [Compound 139, (E)-6-(6-(azetidin-3-yloxy)pyridine-3-yl)-N'-(2-fluoro-5-methoxybenzylidene) pyrazine-2-carbohydrazide], the IC50 [1] is reported as greater than 1 µM and the IC50 [2] is reported as greater than 1 µM.
`CN(C)c1ccc(F)c(/C=N/NC(=O)c2cncc(-c3ccc(OC(F)F)nc3)n2)c1` [Compound 104, (E)-6-(6-(difluoromethoxy)pyridine-3-yl)-N'-(5-(dimethylamino)-2-fluorobenzylidene) pyrazine-2-carbohydrazide] gave an IC50 [1] of less than 0.5 µM and an IC50 [2] greater than 1 µM.
For `CCOc1ccc(-c2cncc(C(=O)N/N=C/c3cc(OC4CNC4)cnc3F)n2)cn1` [Compound 34, (E)-N'-((5-(azetidin-3-yloxy)-2-fluoropyridine-3-yl)methylene)-6-(6-ethoxypyridine-3-yl) pyrazine-2-carbohydrazide], the IC50 [1] was greater than 1 µM and the IC50 [2] was greater than 1 µM.
`CCOc1ccc(-c2cnc(O)c(C(=O)N/N=C/c3cc(OC)cnc3F)n2)cn1` [Compound 65, (E)-6-(6-ethoxypyridine-3-yl)-N'-((2-fluoro-5-methoxypyridine-3-yl)methylene)-3-hydroxypyrazine-2-carbohydrazide] was tested, and the IC50 [1] was greater than 1 µM and the IC50 [2] was greater than 1 µM.
For `[2H]C([2H])([2H])COc1ccc(-c2cncc(C(=O)N/N=C/c3cc(OC)cnc3F)n2)cn1` [Compound 168, (E)-6-(6-(ethoxy-2,2,2-d3)pyridine-3-yl)-N'-((2-fluoro-5-methoxypyridine-3-yl)methylene)pyrazine-2-carbohydrazide], the IC50 [1] was less than 0.5 µM and the IC50 [2] was greater than 1 µM.
`CCOc1ccc(-c2cncc(C(=O)N/N=C/c3cc(OC)cnc3F)n2)c(C)n1` [Compound 152, (E)-6-(6-ethoxy-2-methylpyridine-3-yl)-N'-((2-fluoro-5-methoxypyridine-3-yl)methylene)pyrazine-2-carbohydrazide] was tested, and the IC50 [1] was less than 0.5 µM and the IC50 [2] was greater than 1 µM.
`CN(C)c1cnc(F)c(/C=N/NC(=O)c2cncc(-c3ccc(OC(F)F)nc3)n2)c1` [Compound 105, (E)-6-(6-(difluoromethoxy)pyridine-3-yl)-N'-((5-(dimethylamino)-2-fluoropyridine-3-yl)methylene)pyrazine-2-carbohydrazide] was tested, and the IC50 [1] was greater than 1 µM and the IC50 [2] was greater than 1 µM.
`CCOc1ccc(-c2cncc(C(=O)N/N=C/c3cc(OC4CCC4)ccc3F)n2)cn1` [Compound 21, (E)-N'-(5-cyclobutoxy-2-fluorobenzylidene)-6-(6-ethoxypyridine-3-yl)pyrazine-2-carbohydrazide] was tested, and the IC50 [1] was less than 0.5 µM and the IC50 [2] was 0.5 to 1 µM.
Work on `[2H]C([2H])([2H])Oc1cnc(F)c(/C=N/NC(=O)c2cncc(-c3ccc(OCC)nc3)n2)c1` [Compound 171, (E)-6-(6-ethoxypyridine-3-yl)-N'-((2-fluoro-5-(methoxy-d3)pyridine-3-yl)methylene) pyrazine-2-carbohydrazide] yielded an IC50 [1] of less than 0.5 µM and an IC50 [2] greater than 1 µM.
For `COc1cc(O)c(F)c(/C=N/NC(=O)c2cncc(-c3ccc(OC(F)F)nc3)n2)c1` [Compound 119, (E)-6-(6-(difluoromethoxy)pyridine-3-yl)-N'-(2-fluoro-3-hydroxy-5-methoxybenzylidene)pyrazine-2-carbohydrazide], the IC50 [1] was 0.5 to 1 µM and the IC50 [2] was greater than 1 µM.
`CCOc1ccc(-c2cncc(C(=O)N/N=C/c3cc(OC)c(F)cc3F)n2)cn1` [Compound 3, (E)-N'-(2,4-difluoro-5-methoxybenzylidene)-6-(6-ethoxypyridine-3-yl)pyrazine-2-carbohydrazide] showed an IC50 [1] of less than 0.5 µM and an IC50 [2] of 0.5 to 1 µM.
Work on `CCOc1ccc(-c2cncc(C(=O)N/N=C/c3cc(OC4CC4)ccc3F)n2)cn1` [Compound 6, (E)-N'-(5-cyclopropoxy-2-fluorobenzylidene)-6-(6-ethoxypyridine-3-yl)pyrazine-2-carbohydrazide] yielded an IC50 [1] of less than 0.5 µM and an IC50 [2] greater than 1 µM.
`CCOc1ccc(F)c(/C=N/NC(=O)c2cncc(-c3ccc(OC(F)(F)F)nc3)n2)c1` [Compound 91, (E)-N'-(5-ethoxy-2-fluorobenzylidene)-6-(6-(trifluoromethoxy)pyridine-3-yl)pyrazine-2-carbohydrazide] showed an IC50 [1] of less than 0.5 µM and an IC50 [2] greater than 1 µM.
Compound `COc1cccc(/C=N/NC(=O)c2cncc(-c3ccc(OC(F)(F)F)nc3)n2)c1` [Compound 90, (E)-N'-(3-methoxybenzylidene)-6-(6-(trifluoromethoxy)pyridine-3-yl)pyrazine-2-carbohydrazide] has an IC50 [1] of less than 0.5 µM and an IC50 [2] greater than 1 µM.
For `COc1ccc(F)c(/C=N/NC(=O)c2cncc(-c3ccc([S+](C)[O-])nc3)n2)c1` (stereo not shown) [Compound 131, (E)-N'-(2-fluoro-5-methoxybenzylidene)-6-(6-(methylsulfinyl)pyridine-3-yl)pyrazine-2-carbohydrazide], the IC50 [1] was 0.5 to 1 µM and the IC50 [2] was greater than 1 µM.
In the case of `COc1cc(/C=N/NC(=O)c2cncc(-c3ccc(OC4CC4)nc3)n2)c(F)cc1F` [Compound 78, (E)-6-(6-cyclopropoxypyridine-3-yl)-N'-(2,4-difluoro-5-methoxybenzylidene) pyrazine-2-carbohydrazide], the IC50 [1] is reported as less than 0.5 µM and the IC50 [2] is reported as less than 0.5 µM.
With `CCOc1ccc(-c2cncc(C(=O)N/N=C/c3ocnc3C)n2)cn1` [Compound 61, (E)-6-(6-ethoxypyridine-3-yl)-N'-((4-methyloxazole-5-yl)methylene)pyrazine-2-carbohydrazide] the IC50 [1] was greater than 1 µM and the IC50 [2] was greater than 1 µM.
Compound `CCOc1ccc(-c2nc(C(=O)N/N=C/c3cc(OC)cnc3F)cn(C)c2=O)cn1` [Compound 75, (E)-6-(6-ethoxypyridine-3-yl)-N'-((2-fluoro-5-methoxypyridine-3-yl)methylene)-4-methyl-5-oxo-4,5-dihydropyrazine-2-carbohydrazide] has an IC50 [1] greater than 1 µM and an IC50 [2] greater than 1 µM.
With `CCOc1ccc(-c2cnc(N)c(C(=O)N/N=C/c3cc(OC)ccc3F)n2)cn1` [Compound 64, (E)-3-amino-6-(6-ethoxypyridine-3-yl)-N'-(2-fluoro-5-methoxybenzylidene) pyrazine-2-carbohydrazide] the IC50 [1] was 0.5 to 1 µM and the IC50 [2] was greater than 1 µM.
Compound `[2H]C([2H])([2H])Oc1cnc(F)c(/C=N/NC(=O)c2cncc(-c3ccc(OC([2H])([2H])C)nc3)n2)c1` [Compound 172, (E)-6-(6-(ethoxy-1,1-d2)pyridine-3-yl)-N'-((2-fluoro-5-(methoxy-d3)pyridine-3-yl)methylene)pyrazine-2-carbohydrazide] has an IC50 [1] of less than 0.5 µM and an IC50 [2] greater than 1 µM.
`CCOc1ccc(-c2cncc(C(=O)N/N=C/c3cc(C(C)O)cnc3F)n2)cn1` (stereo not shown) [Compound 25, (E)-6-(6-ethoxypyridine-3-yl)-N'-((2-fluoro-5-(1-hydroxyethyl)pyridine-3-yl)methylene) pyrazine-2-carbohydrazide] was tested, and the IC50 [1] was 0.5 to 1 µM and the IC50 [2] was greater than 1 µM.
